Laboratory results: patent US9707250B2, “Hydrophobically modified antisense oligonucleotides comprising a triple alkyl chain” (INSTITUT NATIONAL DE LA SANTE ET DE LA RECHERCHE MEDICALE …, priority 2013, dated 2017)
Oligonucleotides are written 5' to 3', each unit as a sugar letter and its base; * is a phosphorothioate linkage, no mark a phosphodiester; rarer units and linkages stand in square brackets, end groups in braces. Plain capitals give the bases only. {(C18)3CCH2} = lipid of three C18 alkyl chains on a quaternary carbon, linked through CH2-O-phosphodiester; {3LON} = triple hydrocarbon-chain lipid moiety added by triple chain phosphoramidite 4; d = 2'-deoxy (DNA)

Tests used:
TCTP protein = TCTP protein expression by western blot after transfection without Oligofectamine; type: cell-based, human; conditions: PC-3 prostatic cells; absence of Oligofectamine; 30 nM to 100 nM, in particular 100 nM; two or three days after transfection; LASO#Scr negative control
Procedure: Lipid-conjugated oligonucleotide, LASO#15 was tested on TCTP protein expression using western-blot (LASO#Scr was used as negative control).
(§1) Prostatic cell line were transfected with LASO#15 at various concentrations (from 30 nM to 100 nM), in OptiMEM® medium (Invitrogen), without serum and in the absence of Oligofectamine™ transfection reagent (Invitrogen).
(§2) Serum was added 4 hours after transfection. Two or three days after transfection, the level of TCTP protein expression and GAPDH (used as housekeeping gene) were determined by performing western blotting, and the in vitro growth inhibitory effects of LASO#15 on PC-3 cells were assessed using an MTT assay.
Western Blot analysis was performed as described previously (Rocchi et al., 2004, Cancer Res. 64:6595-602) with 1:2000 rabbit TCTP polyclonal antibody (Abcam Inc., Cambridge, UK). Loading levels were normalized using 1:5000 rabbit anti-glyceraldehyde-3-phosphate dehydrogenase polyclonal (Abcam Inc.).

PC-3 cells = assay: MTT assay, in vitro growth inhibitory effects; type: cell-based, human; conditions: transfection in the absence of Oligofectamine
Procedure: The CR prostate cancer cell line PC-3 was purchased from the American Type Culture Collection (Rockville, Md., USA). The cells were maintained in Dulbecco's Modified Eagle's Medium (Invitrogen, Cergy Pontoise, France), supplemented with 10% fetal calf serum (FCS).
as §1, §2
The MTT assay was performed as described previously (Rocchi et al., 2004, Cancer Res. 64:6595-602).

[1] = Aggregation behavior of LONs in aqueous media; type: physicochemical
Procedure: As true surfactants, LONs can self assemble in aqueous media. […] The latter could be HPLC-purified and characterized by MS. […] […] Aqueous samples containing LONs were studied under different conditions including pure water and aqueous suspensions of varying ionic strength and temperature (25-45° C.). All the LONs investigated, namely ^3LON-T15, yielded small spherical objects ranging from approximately 8 to 20 nm in diameter as characterized by DLS, transmission and scanning electronic microscopies (TEM and SEM). […] The micellar architecture of these assemblies can be explained based upon the molecular dimensions of 15 nucleobase-long LONs. Indeed, such molecules are flexible, with cone shape structure and dimensions compatible with the self-aggregation into spherical micelles.

[2] = Solubility of LONs in water; type: physicochemical; conditions: adenosine-containing versus thymidine LON
Procedure: At this point, the crude ^3LON-T15 and ^3LON-A15 behave quite differently. […] The LON eluted after ca. 42 min under these conditions. Fractions containing the LON were pooled and evaporated to dryness. The LON was dissolved in water and dried again two times to remove all residual traces of buffer. Yield of final ^3LON-T15 was excellent (40%).
(§3) As true surfactants, LONs can self assemble in aqueous media. […] The latter could be HPLC-purified and characterized by MS. […] Consequently, dynamic light scattering, transmission electron microscopy and SEM experiments were carried out with the solutions of one purified LON only. Aqueous samples containing LONs were studied under different conditions including pure water and aqueous suspensions of varying ionic strength and temperature (25-45° C.). All the LONs investigated, namely ^3LON-T15, yielded small spherical objects ranging from approximately 8 to 20 nm in diameter as characterized by DLS, transmission and scanning electronic microscopies (TEM and SEM). […] The micellar architecture of these assemblies can be explained based upon the molecular dimensions of 15 nucleobase-long LONs. Indeed, such molecules are flexible, with cone shape structure and dimensions compatible with the self-aggregation into spherical micelles.

[3] = Size of LON aggregates by DLS, TEM and SEM; type: physicochemical
Procedure: Transmission Electron Microscopy (TEM). Samples were imaged by negative staining microscopy with a Hitachi H 7650 electron microscope. Samples containing LONs (concentrations and mean sizes are indicated in TEM images) were transferred to a carbon-coated copper grid for ten minutes. The sample was then dried and stained with 2.5% (W/W) of uranyl acetate in water for five minutes.
Scanning Electron Microscopy (SEM). Samples were examined at an accelerating voltage of 10 kV. Typically […] of sample containing the LON aggregates were dried spread on polished stainless steel platelets and then coated with a 6-10 nm layer of gold-palladium alloy under vacuum with a sputter Coater Balzers SCD050. Observations were made with a Philips XL30S FEG instrument.
as §3

(C18)3CCH2—O—P(═O)(—O[−1])-O-5′-AACTTGTTTCCTGCAGGTGA-3′-OH (antisense {(C18)3CCH2}-dAdAdCdTdTdGdTdTdTdCdCdTdGdCdAdGdGdTdGdA) [LASO#15]
TCTP protein expression (western blot) (TCTP protein): specific inhibition of TCTP protein
growth of PC-3 cells (MTT assay) (PC-3 cells): inhibiting the growth of the PC-3 cells

^3LON-A15: Triple chain polyA 15mer; dA15 (SEQ ID NO: 32) coupled at its 5′ end with triple chain phosphoramidite 4 (DNA AAAAAAAAAAAAAAA; DNA, 5' {3LON}, backbone not given here)
aggregation after cleavage and deprotection ([1]; crude LON): immediate and irreversible aggregation
solubility in water (relative) [2]: less soluble in water than their thymidine counterparts

^3LON-T15: Triple chain polyT 15mer; dT15 (SEQ ID NO: 33) coupled at its 5′ end with triple chain phosphoramidite 4
aggregation on storage ([1]; after storage at −20° C.): slow aggregation tendency
effect of temperature on aggregate size ([3]; 25-45° C. range): poorly affected by temperature
sensitivity of aggregate size to ionic strength ([3]; DLS in water): poorly sensitive to ionic strength
change of micelle core on hybridization ([3]; DLS, hybridization of the complementary dA15, not observed with ncDNA): contraction of the core micelle is observed
